Key:
NF-κB = NF-κB GFP Assay (NFκB/Jurkat/GFP transcriptional reporter cell line); format: cell-based; settings: Homo sapiens; NF-κB/Jurkat/GFP reporter cells, TNF-α 5 ng/ml, 24 hours; read-out: NF-KB GFP IC50
Experimental: NFκB/Jurkat/GFP transcriptional reporter cell line was obtained from SBI System Biosciences. NF-κB/Jurkat/GFP™ Reporter cells (5×10^5 cells) were plated at a concentration of 1 million cells/ml into each well of a 24-well plate. TNF-α (5 ng/ml) was added. Compounds were added via serial dilutions to corresponding wells. After 24 hours, 100 μl of the cells were transferred to a well of a Costar® UV plate (96 well, No lid, w/ UV Transparent Flat Bottom, Corning, N.Y., Cat#3635) and the intensity of GFP fluorescence was measured (Excitation 485+/−20, Emission 528+/−20) in a Synergy™ HT Multi-Detection Microplate Reader (BioTech, Winooski, Vt.). The intensities of GFP measured were plotted against the […].

c-Rel protein = c-Rel protein (Homo sapiens (Human), UniProt Q04864); experiment: Electrophoretic Mobility Shift Assay (EMSA), Rel/NF-κB DNA binding inhibition; settings: 10 nM c-Rel protein, phosphor-labeled CD28RE oligonucleotide
Experimental: Electrophoretic Mobility Shift Assay (EMSA)
DNA binding reaction (20 μL) was carried out in 1×DNA Binding Buffer (10 mM Tris, 40 mM NaCl, 1 mM EDTA, 4% glycerol) with 10 nM c-Rel protein and 0.5 ng phosphor-labeled CD28RE oligonucleotide for 10 minutes at room temperature in 96-well plates. Test compounds, in serial dilutions, were added into each well, and further incubated for 15 minutes before loading onto native 5% polyacrylamide gel. Electrophoresis proceeded for 2.5 hours at 160V. Radioactive signals were quantified using Phospho-Imager. IC50 of compounds of example 1 to 75 were determined by quantifying the intensity of Rel/NF-κB inhibition in EMSA using phospho-imager. An example of EMSA data of the present invention is shown for compound 6 in FIG. 2.

Sequence of c-Rel protein (Q04864 whole entry): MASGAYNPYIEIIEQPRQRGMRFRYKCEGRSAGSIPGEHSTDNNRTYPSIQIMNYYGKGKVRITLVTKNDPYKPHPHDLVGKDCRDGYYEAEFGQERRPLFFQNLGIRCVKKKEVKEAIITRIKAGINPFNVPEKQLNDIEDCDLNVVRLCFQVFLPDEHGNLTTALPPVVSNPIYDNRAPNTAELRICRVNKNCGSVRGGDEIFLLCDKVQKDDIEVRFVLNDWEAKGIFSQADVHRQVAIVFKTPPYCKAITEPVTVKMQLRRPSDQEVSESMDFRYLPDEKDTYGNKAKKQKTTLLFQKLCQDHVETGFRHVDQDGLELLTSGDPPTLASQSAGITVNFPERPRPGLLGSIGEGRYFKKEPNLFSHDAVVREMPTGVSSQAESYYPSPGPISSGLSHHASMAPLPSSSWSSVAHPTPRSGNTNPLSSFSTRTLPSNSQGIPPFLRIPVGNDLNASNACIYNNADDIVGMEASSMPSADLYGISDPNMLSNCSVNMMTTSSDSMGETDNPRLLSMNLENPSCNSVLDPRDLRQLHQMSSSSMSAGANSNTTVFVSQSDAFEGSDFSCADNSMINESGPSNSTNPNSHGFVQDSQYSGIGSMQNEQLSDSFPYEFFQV

Row | SMILES | IC50 (NF-κB) [nM] | IC50 (c-Rel protein) [nM]
1 | COc1cccc2cc3c(=O)[nH]c(=O)nc-3oc12 [Compound 1, 9-methoxy-2H-chromeno[2,3-d]pyrimidine-2,4(3H)-dione] | < 30000 | < 2000
2 | CCOc1cccc2cc3c(=O)[nH]c(=O)nc-3oc12 [Compound 2, 9-ethoxy-2H-chromeno[2,3-d]pyrimidine-2,4(3H)-dione] | < 30000 | < 2000
3 | COc1cc(Cl)cc2cc3c(=O)[nH]c(=O)nc-3oc12 [Compound 3, 7-chloro-9-methoxy-2H-chromeno[2,3-d]pyrimidine-2,4(3H)-dione] | < 30000 | < 2000
4 | COc1cc(Br)cc2cc3c(=O)[nH]c(=O)nc-3oc12 [Compound 4, 7-bromo-9-methoxy-2H-chromeno[2,3-d]pyrimidine-2,4(3H)-dione] | < 30000 | < 2000
5 | CCOc1cc(Cl)cc2cc3c(=O)[nH]c(=O)nc-3oc12 [Compound 5] | < 30000 | < 2000
6 | COc1ccc2cc3c(=O)[nH]c(=O)nc-3oc2c1 [Compound 6, 8-methoxy-2H-chromeno[2,3-d]pyrimidine-2,4(3H)-dione] | < 10000 | < 1000
7 | COc1cc(Cl)cc2cc3c(=O)[nH]c(=S)nc-3oc12 [Compound 7, 7-chloro-9-methoxy-2-thioxo-2H-chromeno[2,3-d]pyrimidin-4(3H)-one] | < 30000 | < 2000
8 | COc1ccc2cc3c(=O)[nH]c(=S)nc-3oc2c1 [Compound 8, 8-methoxy-2-thioxo-2H-chromeno[2,3-d]pyrimidin-4(3H)-one] | < 30000 | < 500
9 | O=c1nc2oc3ccccc3cc-2c(=O)[nH]1 [Compound 9, 2H-chromeno[2,3-d]pyrimidine-2,4(3H)-dione] | < 20000 | < 5000
10 | COc1ccc2oc3nc(=O)[nH]c(=O)c-3cc2c1 [Compound 10, 7-methoxy-2H-chromeno[2,3-d]pyrimidine-2,4(3H)-dione] | < 30000 | < 1000
11 | O=c1nc2oc3cc(O)ccc3cc-2c(=O)[nH]1 [Compound 11, 8-hydroxy-2H-chromeno[2,3-d]pyrimidine-2,4(3H)-dione] | < 20000 | < 1000
12 | Cc1ccc2cc3c(=O)[nH]c(=O)nc-3oc2c1 [Compound 12, 8-methyl-2H-chromeno[2,3-d]pyrimidine-2,4(3H)-dione] | 7000 | < 1000
13 | CCOc1ccc2cc3c(=O)[nH]c(=O)nc-3oc2c1 [Compound 13, 8-ethoxy-2H-chromeno[2,3-d]pyrimidine-2,4(3H)-dione] | 9000 | < 1000
14 | COc1cc(OC)c2cc3c(=O)[nH]c(=O)nc-3oc2c1 [Compound 14, 6,8-dimethoxy-2H-chromeno[2,3-d]pyrimidine-2,4(3H)-dione] | 8200 | < 1000
15 | COc1ccc2oc3nc(=S)[nH]c(=O)c-3cc2c1 [Compound 15, 7-methoxy-2-thioxo-2H-chromeno[2,3-d]pyrimidin-4(3H)-one] | < 30000 | < 500
16 | O=c1[nH]c(=S)nc2oc3cc(O)ccc3cc1-2 [Compound 16, 8-hydroxy-2-thioxo-2H-chromeno[2,3-d]pyrimidin-4(3H)-one] | < 30000 | < 500
17 | Cc1ccc2cc3c(=O)[nH]c(=S)nc-3oc2c1 [Compound 17, 8-methyl-2-thioxo-2H-chromeno[2,3-d]pyrimidin-4(3H)-one] | < 30000 | < 500
18 | COc1cc(OC)c2cc3c(=O)[nH]c(=S)nc-3oc2c1 [Compound 18, 6,8-dimethoxy-2-thioxo-2H-chromeno[2,3-d]pyrimidin-4(3H)-one] | – | < 500
19 | CCCOc1ccc2cc3c(=O)[nH]c(=O)nc-3oc2c1 [Compound 19, 8-propoxy-2H-chromeno[2,3-d]pyrimidine-2,4(3H)-dione] | < 5000 | < 1000
20 | CCCOc1cc2oc3nc(=O)[nH]c(=O)c-3cc2cc1Cl [Compound 20, 7-chloro-8-propoxy-2H-chromeno[2,3-d]pyrimidine-2,4(3H)-dione] | < 5000 | < 1000
21 | CCCCCCOc1ccc2cc3c(=O)[nH]c(=O)nc-3oc2c1 [Compound 21, 8-(n-hexyloxy)-2H-chromeno[2,3-d]pyrimidine-2,4(3H)-dione] | < 5000 | < 1000
22 | CCOc1ccc2cc3c(=O)[nH]c(=O)nc-3oc2c1Cl [Compound 22, 9-chloro-8-ethoxy-2H-chromeno[2,3-d]pyrimidine-2,4(3H)-dione] | < 10000 | < 1000
23 | CC(C)COc1ccc2cc3c(=O)[nH]c(=O)nc-3oc2c1 [Compound 23, 8-isobutoxy-2H-chromeno[2,3-d]pyrimidine-2,4(3H)-dione] | < 5000 | < 1000
24 | CCCCn1c(=O)nc2oc3cc(OCC)ccc3cc-2c1=O [Compound 24, 3-(n-butyl)-8-ethoxy-2H-chromeno[2,3-d]pyrimidine-2,4(3H)-dione] | < 30000 | < 1000
25 | CCCc1cc2oc3nc(=O)[nH]c(=O)c-3cc2cc1Cl [Compound 25, 7-chloro-8-propyl-2H-chromeno[2,3-d]pyrimidine-2,4(3H)-dione] | < 30000 | < 1000
26 | CCCCn1c(=O)nc2oc3cc(OCC)c(Cl)cc3cc-2c1=O [Compound 26, 3-butyl-7-chloro-8-ethoxy-2H-chromeno[2,3-d]pyrimidine-2,4(3H)-dione] | < 30000 | < 1000

Row | SMILES | IC50 (NF-κB) [nM] | IC50 (c-Rel protein) [nM]
27 | Cc1cc2oc3nc(=O)[nH]c(=O)c-3cc2cc1F [Compound 27, 7-fluoro-8-methyl-2H-chromeno[2,3-d]pyrimidine-2,4(3H)-dione] | < 5000 | < 500
28 | CCOc1cc2oc3nc(=O)[nH]c(=O)c-3cc2cc1F [Compound 28, 8-ethoxy-7-fluoro-2H-chromeno[2,3-d]pyrimidine-2,4(3H)-dione] | < 5000 | < 500
29 | CCCCOc1cc2oc3nc(=O)[nH]c(=O)c-3cc2cc1F [Compound 29] | < 5000 | < 500
30 | CCCCCOc1cc2oc3nc(=O)[nH]c(=O)c-3cc2cc1F [Compound 30] | < 10000 | < 500
31 | CCCCCCOc1cc2oc3nc(=O)[nH]c(=O)c-3cc2cc1F [Compound 31] | < 5000 | < 500
32 | CCCCCCCOc1cc2oc3nc(=O)[nH]c(=O)c-3cc2cc1F [Compound 32] | < 5000 | < 500
33 | CC(C)CCOc1cc2oc3nc(=O)[nH]c(=O)c-3cc2cc1F [Compound 33] | < 3000 | < 500
34 | CC(C)(C)CCOc1cc2oc3nc(=O)[nH]c(=O)c-3cc2cc1F [Compound 34] | 10000 | < 500
35 | CC(C)CCCOc1cc2oc3nc(=O)[nH]c(=O)c-3cc2cc1F [Compound 35] | < 10000 | < 1000
36 | CC(C)(C)COc1cc2oc3nc(=O)[nH]c(=O)c-3cc2cc1F [Compound 36] | < 10000 | < 500
37 | CCCCCCOc1cc2oc3nc(=O)[nH]c(=O)c-3cc2cc1Cl [Compound 37] | < 20000 | < 500
38 | CC(C)COc1cc2oc3nc(=O)[nH]c(=O)c-3cc2cc1Cl [Compound 38] | < 20000 | < 500
39 | CCCCCOc1ccc2cc3c(=O)[nH]c(=O)nc-3oc2c1Cl [Compound 39] | < 3000 | < 500
40 | CC(C)CCOc1ccc2cc3c(=O)[nH]c(=O)nc-3oc2c1Cl [Compound 40] | 5000 | < 500
41 | CC(C)(C)CCOc1ccc2cc3c(=O)[nH]c(=O)nc-3oc2c1Cl [Compound 41] | < 10000 | < 500
42 | CCCCCCCOc1ccc2cc3c(=O)[nH]c(=O)nc-3oc2c1Cl [Compound 42] | < 10000 | < 500
43 | CCCCOc1ccc2cc3c(=O)[nH]c(=O)nc-3oc2c1Cl [Compound 43] | < 3000 | < 500
44 | CCCCCCOc1ccc2cc3c(=O)[nH]c(=O)nc-3oc2c1Cl [Compound 44] | < 3000 | < 500
45 | CCCCOc1ccc2cc3c(=O)[nH]c(=O)nc-3oc2c1F [Compound 45] | < 5000 | < 500
46 | CCCCCCOc1ccc2cc3c(=O)[nH]c(=O)nc-3oc2c1F [Compound 46] | < 5000 | < 500
47 | CC(C)CCCOc1ccc2cc3c(=O)[nH]c(=O)nc-3oc2c1F [Compound 47] | < 5000 | < 1000
48 | CC(C)COc1ccc2cc3c(=O)[nH]c(=O)nc-3oc2c1F [Compound 48] | < 5000 | < 500
49 | CCOc1ccc2cc3c(=O)[nH]c(=O)nc-3sc2c1 [Compound 49, 8-ethoxy-2H-thiochromeno[2,3-d]pyrimidine-2,4(3H)-dione] | < 5000 | < 1000
50 | CCCCOc1ccc2cc3c(=O)[nH]c(=O)nc-3oc2c1 [Compound 50] | < 5000 | < 1000
51 | CC(=O)OCCCCOc1ccc2cc3c(=O)[nH]c(=O)nc-3oc2c1 [Compound 51] | < 5000 | < 1000

Source: patent US10226464B2, “Small molecule NF-κB inhibitors” (ImmuneTarget, Inc., priority 2015, dated 2019)
